Patent US20110189260A1, “USE OF ZINC CHELATORS TO INHIBIT BIOFILM FORMATION” (UNIVERSITY OF CINCINNATI, priority 2008, published 2011)
Positions count from the first letter of the chain named. Names and notes keep the numbering of the source. Values joined by “and” are separate entries in the source; they are usually repeats but may differ in a detail not shown here. Equal values may be shown once. Read-outs that look alike come from different tables or passages of the source.

Experiments:
[1] = system: Methicillin-Resistant Staphylococcus epidermidis Strain RP62a; assay: Biofilm formation assay in 96 well plates, crystal violet, absorbance at 570 nm (Example 8); format: cell-based; settings: 18-24 hours, 37° C.
Experimental: S. epidermidis strain RP62a (ATCC 35984) was obtained as a glycerol stock from ATCC. 3 ml overnight cultures were grown in tryptic soy broth (TSB, BD Biomedical), shaking at 37° C., and cultures were diluted 1:200 in TSB for use in the biofilm assay.
Each chelator (prepared in Examples 1-6) was added directly to a 96 well microtiter plate in a series of dilutions. 20 μl of each stock solution (200, 400, 800, 1600, 3200, 6400, 13000, or 26000 μM chelator) was added to each well. 200 μl of the 1:200 dilution of RP62a bacterial culture (as previously specified) was added to each well. Controls with bacterial culture media only and bacterial culture media plus vehicle controls only (i.e., final concentrations 10 mM HCl, 10% ethanol, or 10 mM NaOH) were added to wells alone without chelator. The 96 well plates were then incubated 18-24 hours statically at 37° C. Media was aspirated by pipet and wells were washed twice with filtered water. The plates were dried by inversion for 1 hour, and stained with 0.1% crystal violet for 15 minutes. Crystal violet was then aspirated by pipet and washed once with filtered water. The plates were then read on a spectrophotometer at a wavelength of 570 nm. An absorbance greater than 0.1 indicates biofilm formation.

[2] = Sr; cited from earlier work
[3] = Mn; cited from earlier work
[4] = Zn; cited from earlier work
[5] = system: Methicillin-resistant S. aureus USA300 biofilms; assay: USA300 biofilms on fibronectin-coated plates (FIG. 3B, 3D); format: cell-based
Experimental: (§1) FIG. 3. (A) S. epidermidis RP62A biofilms formed on polystyrene and were visualized with crystal violet; addition of the Zn^2+ chelator DTPA (≧30 μM) inhibits biofilm formation. Representative wells have been scanned (bottom). Untreated (“RP62A”) and vehicle (“HCl”) controls are shown. Error bars show standard deviation (* indicates p<0.05 relative to untreated control; n=3); (B) Methicillin-resistant S. aureus USA300 biofilms form on fibronectin-coated plates but are inhibited by addition of DTPA (≧30 μM). (*: p<0.05; n=4); (C) Addition of 5-20 μM ZnCl2 at a minimal inhibitory dose of DTPA (30 μM) rescues biofilm formation by RP62A.
S. aureus strain USA300, which is responsible for recent epidemic outbreaks of community-acquired methicillin-resistant S. aureus (MRSA) infections, formed biofilms on fibronectin-coated plates. As observed for S. epidermidis, the MRSA biofilms were inhibited by Zn^2+ chelation (≧30 μM DTPA) (FIG. 3B). […] Like S. epidermidis, the MRSA strain USA300 could be rescued by the addition of 15-20 μM ZnCl2 (FIG. 3D). Importantly, at the minimal inhibitory concentration of DTPA (30 μM), biofilm growth by both staphylococcal species could be rescued by the addition of 5-20 μM ZnCl2; these Zn^2+ concentrations are similar to the physiological range in human plasma (12-16 μM resting concentration).

[6] = system: S. epidermidis RP62A biofilms; assay: RP62A biofilms on polystyrene visualized with crystal violet (FIG. 3A, 3C, 4, 7, 8); format: cell-based
[7] = Mg; cited from earlier work
[8] = Ca; cited from earlier work
[9] = system: Staphylococcus aureus Strain Rosenbach SA113; assay: Biofilm formation assay in FBS pre-treated 96 well plates, crystal violet (Example 9); format: cell-based; settings: SA113, 2% glucose, 36-40 hours
Experimental: In addition, 96 well microtiter plates were pre-treated with fetal bovine serum (FBS) at 4° C. for at least 24 hours prior to use. The FBS was aspirated prior to addition of chelators and glucose for the assay. […] The 96 well plates were then incubated 36-40 hours statically at 37° C. Media was aspirated by pipet and wells were washed twice with filtered water. The plates were dried by inversion for 1 hour, and stained with 0.1% crystal violet for 15 minutes. Crystal violet was then aspirated by pipet and washed once with filtered water. The plates were then read on a spectrophotometer at a wavelength of 570 nm.

[10] = system: S. epidermidis RP62A biofilms; assay: RP62A biofilms on polystyrene visualized with crystal violet (FIG. 3A, 3C, 4, 7, 8); format: cell-based; remark: listed apart in the source
Experimental: as §1
FIG. 4. […] (*: p<0.05 relative to RP62A control at the relevant Zn^2+ concentration; n=3); (B) Dose response of biofilm inhibition by MBP-Brpt1.5 at a fixed 1 mM ZnCl2 concentration. (*: p<0.0005; n=3); (C) The “zinc zipper” model for intercellular adhesion in staphylococcal biofilms mediated by zinc-dependent self-association of G5 domains.
FIG. 7. […] All data at 30 μM DTPA show statistically significant decreases compared to no-treatment control (RP62A). Statistically significant increases over the 0 μM MnCl2/30 μM DTPA datapoint are marked with an asterisk (*).
To test the physiological role of Zn^2+-mediated G5 adhesion in the formation of staphylococcal biofilms, both S. epidermidis and S. aureus biofilms were grown in culture in the presence or absence of the Zn^2+ chelator diethylenetriaminepentaacetic acid (DTPA). DTPA was non-toxic at all concentrations tested (up to 100 μM). S. epidermidis strain RP62A formed robust biofilms when cultured in media alone, but biofilm growth was inhibited by non-toxic doses of DTPA (≧30 μM) (FIG. 3A).
To determine whether Zn^2+-dependent biofilm formation is specifically dependent upon G5 domain-mediated self-assembly, soluble Brpt1.5 was added to S. epidermidis RP62A biofilms as a maltose-binding protein (MBP) fusion. Because of the higher Zn^2+ concentrations required to induce dimerization in the short construct compared to full-length Aap, inhibition by MBP-Brpt1.5 was tested at Zn^2+ concentrations ranging up to 1 mM. RP62A biofilms were inhibited by soluble MBP-Brpt1.5 in the presence of 0.75 and 1 mM ZnCl2, whereas addition of MBP alone had no effect (FIG. 4A). […] Thus, addition of even a single intact zinc adhesion module in a soluble form is capable of inhibiting biofilm formation, highlighting the role of this domain as a Zn^2+-dependent adhesion module in staphylococcal biofilms.

[11] = system: Methicillin-Resistant Staphylococcus aureus Strain USA300; assay: Biofilm formation assay in fibronectin pre-treated 96 well plates, crystal violet (Example 11); format: cell-based; settings: USA300, 2% glucose, 36-40 hours
Experimental: S. aureus strain USA300 was obtained from Daniel Hassett (University of Cincinnati) as a glycerol stock. 3 ml overnight cultures were grown in blood-heart infusion broth (BHI) shaking at 37° C., where cultures were diluted 1:25 for use in the biofilm assay. 2% glucose (20 ul from a 20% glucose stock) was added to each well prior to the addition of bacterial culture to promote biofilm formation. In addition, 96 well microtiter plates were pre-treated with human fibronectin (BD biomedical purchased from Fisher scientific). The fibronectin was aspirated prior to addition of chelators and glucose for the assay. Each chelator (prepared in Examples 1-6) was added directly to a 96 well microtiter plate in a series of dilutions. 20 μl of each stock solution (200, 400, 800, 1600, 3200, 6400, 13000, or 26000 μM chelator) was added to each well. 200 μl of the 1:25 dilution of USA300 bacterial culture dilution (as previously specified) were added to each well. Controls with bacterial culture media only and bacterial culture media plus vehicle controls only (final concentrations 10 mM HCl, 10% ethanol, and 10 mM NaOH) were added to wells alone without chelator. The 96 well plates were then incubated 36-40 hours statically at 37° C. Media was aspirated by pipet and wells were washed twice with filtered water. The plates were dried by inversion for 1 hour, and stained with 0.1% crystal violet for 15 minutes. Crystal violet was then aspirated by pipet and washed once with filtered water. The plates were then read on a spectrophotometer at a wavelength of 570 nm. An absorbance greater than 0.1 indicates biofilm formation.

[12] = target: Brpt2.5 (Aap construct with two G5 domains and the C-terminal cap) (Staphylococcus epidermidis); assay: sedimentation equilibrium AUC at 10 mM Zn; sequence mass monomer 35,971, dimer 71,942
[13] = target: Brpt2.5 (Aap construct with two G5 domains and the C-terminal cap) (Staphylococcus epidermidis)
[14] = target: Brpt2.5 (Aap construct with two G5 domains and the C-terminal cap) (Staphylococcus epidermidis); assay: sedimentation equilibrium AUC, monomer-dimer association at 2 mM Zn
[15] = target: Brpt2.5 (Aap construct with two G5 domains and the C-terminal cap) (Staphylococcus epidermidis); assay: sedimentation equilibrium AUC, monomer-dimer association at 5 mM Zn
[16] = target: Brpt2.5 (Aap construct with two G5 domains and the C-terminal cap) (Staphylococcus epidermidis); assay: sedimentation equilibrium AUC at 0 mM Zn; sequence mass monomer 35,971, dimer 71,942
[17] = target: Aap (Accumulation-associated protein) on Staphylococcus epidermidis strain RP62A cells (Staphylococcus epidermidis); assay: cell-based or functional assay
[18] = target: the molecule itself; assay: sedimentation velocity analytical ultracentrifugation; self-association with and without 10 mM ZnCl2, normalized c(s) [panel E]
[19] = system: G5 domains of Aap (Zn^2+-mediated monomer-dimer association); settings: 10 mM ZnCl2, pH 7.4 to 6.0, FIG. 6B
Experimental: The dashed line label (- - -) represents cation-free Brpt1.5; (B) Far-UV CD spectrum of Brpt1.5 in the presence (squares) and absence (triangles) of Zn; (C) Sedimentation equilibrium analysis of Zn^2+-mediated dimerization of Brpt1.5 (triangles) and Brpt2.5 (squares). […] Error bars show 95% confidence intervals; (D) Linked equilibrium plot of Zn binding by Brpt1.5.
(A) Sedimentation velocity analysis of the Zn^2+-dependent dimerization of Brpt1.5 as a function of pH in 20 mM Tris, 20 mM MES, 50 mM NaCl, and 10 mM ZnCl2. […] Dashed lines show data collected in the absence of Zn^2+, and solid lines show data collected at 10 mM ZnCl2.
To analyze the linked equilibria between dimerization and Zn^2+ binding, the logarithm of the dimerization association constant was plotted against the logarithm of the free Zn^2+ concentration to reveal the net number of Zn^2+ ions participating in the dimerization interface.

[20] = target: the molecule itself; assay: sedimentation equilibrium AUC, monomer-dimer association at 5 mM Zn; 5 mM Zn (ZnCl2), sedimentation equilibrium
[21] = target: the molecule itself
[22] = target: the molecule itself; assay: sedimentation equilibrium AUC, monomer-dimer association at 10 mM Zn; 10 mM Zn (ZnCl2), sedimentation equilibrium
[23] = target: the molecule itself; assay: sedimentation equilibrium AUC, monomer-dimer association at 2 mM Zn; 2 mM Zn (ZnCl2), sedimentation equilibrium

O=C(O)CN(CCN(CC(=O)O)CC(=O)O)CCN(CC(=O)O)CC(=O)O [DTPA, diethylenetriaminepentaacetic acid]
chelator concentration at which biofilms were diminished but not cleared [1]: 20 µM | chelator concentration at which biofilms were inhibited (absorbance of 0.1 or less) [1]: 40 µM | affinity for DTPA (log K) [2]: 9.68 | affinity for DTPA (log K) [3]: 15.5 | affinity for DTPA (log K) [4]: 18.75 | concentration that inhibits biofilm formation ([5]; USA300 on fibronectin-coated plates, FIG. 3B): ≥ 30 µM | disruption of pre-formed biofilms [6]: did not disrupt | affinity for DTPA (log K) [7]: 9.3 | affinity for DTPA (log K) [8]: 10.74 | chelator concentration at which biofilms were inhibited (absorbance of 0.1 or less) [9]: 20 µM | concentration that inhibits biofilm formation ([10]; RP62A on polystyrene, FIG. 3A): ≥ 30 µM | chelator concentration at which biofilms were diminished but not cleared [11]: 20 µM

[Cl-].[Cl-].[Zn+2] [ZnCl2]
concentration that rescues biofilm formation ([5]; USA300, at minimal inhibitory dose of DTPA (30 μM), FIG. 3D): 15 to 20 µM | concentration that rescues biofilm formation ([10]; RP62A, at minimal inhibitory dose of DTPA (30 μM), FIG. 3C): 5 to 20 µM

Brpt2.5 (Aap construct with two G5 domains and the C-terminal cap)
Mexperimental (molecular weight) [12]: 78500 | EC50 of [Zn2+] for dimerization [13]: 3700 µM | Kd [14]: 25.5 µM | Kd [15]: 0.072 µM | Mexperimental (molecular weight) [16]: 37000

MBP-Brpt1.5 (soluble Brpt1.5 as a maltose-binding protein fusion) (from UniProt Q8CQD9 1089-1296)
concentration that completely abolished RP62A biofilm formation at 1 mM ZnCl2 [17]: 10 µM and 22 µM

B1: H75A/H85A Brpt1.5 mutant (other)
chain: VDGDSITSTEEIPFDKKREFDPNLAPGTEKVVQKGEPGTKTITTPTTKNPLTGEKVGEGEPTEKITKQPVDEIVAYGGEQIPQGAKDEFDPNAPVDSKTEVPGKPGVKNPDTGEVVTPPVDDVTKYGPVDGDSITSTEEIPFDKKREFDPNLAPGTEKVVQKGEPGTKTITTPTTKNPLTGEKVGEGKSTEKVTKQPVDEIVEYGPTK
notes: also called histidine-null mutant
binding result [18]: binds

B2: Brpt1.5: single G5 domain of Aap B-repeat region followed by the C-terminal 79 amino acid half-repeat (protein)
chain: B1 chain with A75H, A85H
apparent pKa of dimer to monomer transition [19]: 6.7

B3: Brpt1.5 (C-terminal G5 domain of the B-repeat region of Aap followed by the C-terminal 79 amino acid half-repeat) (other)
chain: B1 chain with A75H, A85H
notes: also called wild-type Brpt1.5; zinc adhesion module
Kd [20]: 5.06 µM | EC50 of [Zn2+] for dimerization [21]: 5400 µM | Kd [22]: 0.353 µM | Kd [23]: 113 µM
